From patent EP1144368B1, “ACETYLENIC ALPHA-AMINO ACID-BASED SULFONAMIDE HYDROXAMIC ACID TACE INHIBITORS” (priority 1999, dated 2000)
Counter-ions that a name gives are not always drawn.

tested on: THP-1 cells; test: THP-1 Soluble Protein Assay (LPS-stimulated; ELISA of TNF-a, TNF-R p75/80, TNF-R p55/60, IL-8); format: cell-based, human; details: Homo sapiens, THP-1, 3 µM; read-out: THP % Inhibition @ 3µM
Experimental: Each vial of cells are cultured for about two weeks prior to being used for an assay and then are used for only 4 to 6 weeks to screen compounds.
Plates are placed into an incubator set at 5% CO2 and at 37° C. After 4 hours of incubation, 300 ml/well of tissue culture supernatant (TCS) is removed for use in an TNF-a ELISA.
Percent change in each soluble protein evaluated from the "vehicle positive control" was calculated for each compound concentration with the following formula: % Change =(pg/ml (compound) - pg/ml (veh pos control))/(pg/ml (veh pos control) - pg/ml (veh neg control))x 100 [formula]
For the soluble protein (TNF-a, p75/80, p55/60, IL-8) studies under stimulated conditions, the mean pg/ml of duplicate wells were determined and the results expressed as percent change from "vehicle positive control".

SMILES | inhibition at 3 µM
CC#CCOc1ccc(S(=O)(=O)N2[C@@H](C(=O)NO)C(C)(C)SC[C@@H]2C)cc1 [Example 270, (3S,5S)-4-{[4-(2-Butynyloxy)phenyl]sulfonyl}-N-hydroxy-2,2,5-trimethyl-3-thiomorpholinecarboxamide] | 62%
CC#CCOc1ccc(S(=O)(=O)N2[C@H](C)CSC(C)(C)[C@@H]2C(=O)NO)cc1 [Example 271, (3S,5R)-4-{[4-(2-Butynyloxy)phenyl]sulfonyl}-N-hydroxy-2,2,5-trimethyl-3-thiomorpholinecarboxamide] | 82%
CC#CCOc1ccc(S(=O)(=O)N2C[C@H](C)SC(C)(C)[C@@H]2C(=O)NO)cc1 [Example 272, (3S,6S)-4-{[4-(2-Butynyloxy)phenyl]sulfonyl}-N-hydroxy-2,2,6-trimethyl-3-thiomorpholinecarboxamide] | 92%
CC#CCOc1ccc(S(=O)(=O)N2C[C@@H](CNC(=O)OC(C)(C)C)SC(C)(C)[C@@H]2C(=O)NO)cc1 [Example 273, tert-Butyl{(2R,5S)-4-{[4-(2-butynyloxy)phenyl]sulfonyl}-5-[(hydroxyamino)carbonyl]-6,6-dimethylthiomorpholinyl}methylcarbamate] | 90%
CC#CCOc1ccc(S(=O)(=O)N2C[C@@H](CN)SC(C)(C)[C@@H]2C(=O)NO)cc1 [Example 275, (3S,6R)-Trans-6-(aminomethyl)-4-{[4-(2-butynyloxy)phenyl]sulfonyl}-N-hydroxy-2,2-dimethyl-3-thiomorpholinecarboxamide hydrochloride] | 82%
CC#CCOc1ccc(S(=O)(=O)N2C[C@H](CC(=O)OC(C)(C)C)SC(C)(C)[C@@H]2C(=O)NO)cc1 [Example 277, tert-Butyl{(2S,5S)-4-{[4-(2-butynyloxy)phenyl]sulfonyl}-5-[(hydroxyamino)carbonyl]-6,6-dimethylthiomorpholinyl}acetate] | 69%
CC#CCOc1ccc(S(=O)(=O)N2C[C@H](CC(=O)O)SC(C)(C)[C@@H]2C(=O)NO)cc1 [Example 278, {(2S,5S)-4-{[4-(2-Butynyloxy)phenyl]sulfonyl}-5-[(hydroxyamino)carbonyl]-6,6-dimethylthiomorpholinyl}acetic acid] | 89%
CC#CCOc1ccc(S(=O)(=O)N2C[C@H](CC(=O)NO)SC(C)(C)[C@@H]2C(=O)NO)cc1 [Example 279, (3S,6S)-4-{[4-(2-Butynyloxy)phenyl]sulfonyl}-N-hydroxy-6-[2-(hydroxyamino)-2-oxoethyl]-2,2-dimethyl-3-thiomorpholinecarboxamide] | 87%
CC#CCOc1ccc(S(=O)(=O)N2C[C@H](CC(N)=O)SC(C)(C)[C@@H]2C(=O)NO)cc1 [Example 280, (3S,6S)-6-(2-Amino-2-oxoethyl)-4-{[4-(2-butynyloxy)phenyl]sulfonyl}-N-hydroxy-2,2-dimethyl-3-thiomorpholinecarboxamide] | 91%
CC#CCOc1ccc(S(=O)(=O)N2C[C@H](CC(=O)N(C)C)SC(C)(C)[C@@H]2C(=O)NO)cc1 [Example 281, (3S,6S)-4-{[4-(2-Butynyloxy)phenyl]sulfonyl}-6-[2-(dimethylamino)-2-oxoethyl]-N-hydroxy-2,2-dimethyl-3-thiomorpholinecarboxamide] | 76%
CC#CCOc1ccc(S(=O)(=O)N2C[C@H](CC(=O)N3CCOCC3)SC(C)(C)[C@@H]2C(=O)NO)cc1 [Example 282, (3S,6S)-4-{[4-(2-Butynyloxy)phenyl]sulfonyl}-N-hydroxy-2,2-dimethyl-6-[2-(4-morpholinyl)-2-oxoethyl]-3-thiomorpholinecarboxamide] | 91%
CC#CCOc1ccc(S(=O)(=O)N2C[C@H](CC(=O)N3CCN(C)CC3)SC(C)(C)[C@@H]2C(=O)NO)cc1 [Example 283, (3S,6S)-4-{[4-(2-Butynyloxy)phenyl]sulfonyl}-N-hydroxy-2,2-dimethyl-6-[2-(4-methyl-1-piperazinyl)-2-oxoethyl]-3-thiomorpholinecarboxamide hydrochloride] | 90%

same assay, conditions: Homo sapiens, THP-1, read-out: THP % inhibition @ 3 µM

SMILES | inhibition at 3 µM
CC1(C)SCCN(S(=O)(=O)c2ccc(OCC#CCO)cc2)[C@H]1C(=O)NO [Example 260, (3S)-N-Hydroxy-4-({4-[(4-hydroxy-2-butynyl)oxy]phenyl}sulfonyl)-2,2-dimethyl-3-thiomorpholine carboxamide] | 95%

same assay, conditions: Homo sapiens, THP-1, read-out: THP % inhibition @ 3 µM, 3 µM

SMILES | inhibition at 3 µM
CC1(C)SCCN(S(=O)(=O)c2ccc(OCC#CCCCOC3CCCCO3)cc2)C1C(=O)NO (centres unmarked) [Example 248, N-Hydroxy-2,2-dimethyl-4-[(4-{[6-(tetrahydro-2H-pyran-2-yloxy)-2-hexynyl]oxy}phenyl)sulfonyl]-3-thiomorpholine carboxamide] | 21%
CC1(C)SCCN(S(=O)(=O)c2ccc(OCC#CCCCO)cc2)C1C(=O)NO (centres unmarked) [Example 249, N-Hydroxy-4-({4-[(6-hydroxy-2-hexynyl)oxy]phenyl}sulfonyl)-2,2-dimethyl-3-thiomorpholine carboxamide] | 51%
CC(C)(C)OC(=O)NCCCC#CCOc1ccc(S(=O)(=O)N2CCSC(C)(C)[C@@H]2C(=O)NO)cc1 [Example 250, tert-Butyl 6-[4-({(3S)-3-[(hydroxyamino)carbonyl]-2,2-dimethylthiomorpholinyl}sulfonyl)phenoxy]-4-hexynylcarbamate] | 27%
CC1(C)SCCN(S(=O)(=O)c2ccc(OCC#CCCCN)cc2)[C@H]1C(=O)NO [Example 251, (3S)-4-({4-[(6-Amino-2-hexynyl)oxy]phenyl}sulfonyl)-N-hydroxy-2,2-dimethyl-3-thiomorpholine carboxamide] | 22%
CC(C)(C)OC(=O)NCCCCC#CCOc1ccc(S(=O)(=O)N2CCSC(C)(C)[C@@H]2C(=O)NO)cc1 [Example 252, tert-Butyl 7-[4-({(3S)-3-[(hydroxyamino)carbonyl]-2,2-dimethylthiomorpholinyl}sulfonyl)phenoxy]-5-heptynylcarbamate] | 70%
CC1(C)SCCN(S(=O)(=O)c2ccc(OCC#CCCCCN)cc2)[C@H]1C(=O)NO [Example 253, (3S)-4-({4-[(7-Amino-2-heptynyl)oxy]phenyl}sulfonyl)-N-hydroxy-2,2-dimethyl-3-thiomorpholine carboxamide] | 37%
CC1(C)SCCN(S(=O)(=O)c2ccc(OCC#Cc3ccccc3)cc2)[C@H]1C(=O)NO [Example 254, (3S)-N-Hydroxy-2,2-dimethyl-4-({4-[(3-phenyl-2-propynyl)oxy]phenyl}sulfonyl)-3-thiomorpholine carboxamide] | 77%
CC#CCOc1ccc(S(=O)(=O)N2CCS(=O)(=O)C(C)(C)[C@@H]2C(=O)NO)cc1 [Example 257, (3S)-4-{[4-(2-Butynyloxy)phenyl]sulfonyl}-N-hydroxy-2,2-dimethyl-3-thiomorpholine carboxamide 1,1-dioxide] | 91%
C#CCOc1ccc(S(=O)(=O)N2CCSC(C)(C)[C@@H]2C(=O)NO)cc1 [Example 258, (3S)-N-Hydroxy-2,2-dimethyl-4-{[4-(2-propynyloxy)phenyl]sulfonyl}-3-thiomorpholine carboxamide] | 91%
CCC#CCOc1ccc(S(=O)(=O)N2CCSC(C)(C)[C@@H]2C(=O)NO)cc1 [Example 259, (3S)-N-Hydroxy-2,2-dimethyl-4-{[4-(2-pentynyloxy)phenyl]sulfonyl}-3-thiomorpholine carboxamide] | 92%
CC(=O)OCC#CCOc1ccc(S(=O)(=O)N2CCSC(C)(C)[C@@H]2C(=O)NO)cc1 [Example 261, 4-[4-({(3S)-3-[(Hydroxyamino)carbonyl]-2,2-dimethylthiomorpholinyl}suffonyl)phenoxy]-2-butynyl acetate] | 92%
CC1(C)SCCN(S(=O)(=O)c2ccc(OCC#CC#CCO)cc2)[C@H]1C(=O)NO [Example 262, (3S)-N-Hydroxy-4-({4-[(6-hydroxy-2,4-hexadiynyl)oxy]phenyl}sulfonyl)-2,2-dimethyl-3-thiomorpholine carboxamide] | 81%
C#CC#CCOc1ccc(S(=O)(=O)N2CCSC(C)(C)[C@@H]2C(=O)NO)cc1 [Example 263, (3S)-N-Hydroxy-2,2-dimethyl-4-{[4-(2,4-pentadiynyloxy)phenyl]sulfonyl}-3-thiomorpholine carboxamide] | 88%
CC1(C)SCCN(S(=O)(=O)c2ccc(OCC#CCF)cc2)[C@H]1C(=O)NO [Example 264, (3S)-4-({4-[(4-Fluoro-2-butynyl)oxy]phenyl}sulfonyl)-N-hydroxy-2,2-dimethyl-3-thiomorpholine carboxamide] | 94%
CC1(C)SCCN(S(=O)(=O)c2ccc(OCC#CCN)cc2)C1C(=O)NO (centres unmarked) [Example 265, 4-({4-[(4-Amino-2-butynyl)oxy]phenyl}sulfonyl)-N-hydroxy-2,2-dimethyl-3-thiomorpholine carboxamide] | 40%
CC(C)(C)OC(=O)NCC#CCOc1ccc(S(=O)(=O)N2CCSC(C)(C)C2C(=O)NO)cc1 (centres unmarked) [Example 266, tert-Butyl 4-[4-({3-[(hydroxyamino)carbonyl]-2,2-dimethyl-4-thiomorpholinyl}sulfonyl)phenoxy]-2-butynylcarbamate] | 79%
CN(CC#CCOc1ccc(S(=O)(=O)N2CCSC(C)(C)C2C(=O)NO)cc1)C(=O)OC(C)(C)C (centres unmarked) [Example 267, tert-butyl 4-[4-({3-[(hydroxyamino)carbonyl]-2,2-dimethyl-4-thiomorpholinyl}sulfonyl)phenoxy]-2-butynyl(methyl)carbamate] | 15%
CC(=O)OCCCCC#CCOc1ccc(S(=O)(=O)N2CCSC(C)(C)[C@@H]2C(=O)NO)cc1 [Example 268, 7-[4-({(3S)-3-[(Hydroxyamino)carbonyl]-2,2-dimethylthiomorpholinyl}sulfonyl)phenoxy]-5-heptynyl acetate] | 76%
CC1(C)SCCN(S(=O)(=O)c2ccc(OCC#CCCCCO)cc2)[C@H]1C(=O)NO [Example 269, (3S)-N-Hydroxy-4-({4-[(7-hydroxy-2-heptynyl)oxy]phenyl}sulfonyl)-2,2-dimethyl-3-thiomorpholinecarboxamide] | 77%
